Assays:
Assay type in all cases: in vivo
[1] = tested on: giant foxtail (Setaria faberii); experiment: Test E pre-/postemergence greenhouse test, plant response rating 0-100; conditions: Preemergence, scale 0 to 100
[2] = tested on: yellow nutsedge (Cyperus esculentus); experiment: as above; conditions: Preemergence, scale 0 to 100
[3] = tested on: johnsongrass (Sorghum halepense); experiment: as above; conditions: Preemergence, scale 0 to 100
[4] = tested on: large (Lg) crabgrass (Digitaria sanguinalis); experiment: as above; conditions: Preemergence, scale 0 to 100
[5] = tested on: goosegrass (Eleusine indica); experiment: as above; conditions: Preemergence, scale 0 to 100
[6] = tested on: green foxtail (Setaria viridis); experiment: as above; conditions: Preemergence, scale 0 to 100
[7] = tested on: morningglory (Ipomoea coccinea); experiment: as above; conditions: Preemergence, scale 0 to 100
[8] = tested on: waterhemp_RES1, (ALS & Triazine resistant common waterhemp, Amaranthus rudis); experiment: Test E postemergence greenhouse test, plant response rating 0-100; conditions: scale 0 to 100
Outline: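 Resistant waterhemp biotypes grown in peat/vermiculite medium and treated postemergence at 2–18 cm height (1- to 4-leaf stage). Kept in greenhouse 14 to 21 days, then visually rated against untreated controls on a 0–100 scale (0 no effect, 100 complete control).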

[9] = tested on: surinam grass (Brachiaria decumbens); experiment: Test E pre-/postemergence greenhouse test, plant response rating 0-100; conditions: Preemergence, scale 0 to 100
Outline: (§1)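 Greenhouse pot assay, two application timings. Pre- to silt loam at planting; post- to 1–4-leaf plants. Visual 0–100 score at 14–21 d.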

[10] = tested on: velvetleaf (Abutilon theophrasti); experiment: as above; conditions: Preemergence, scale 0 to 100
Outline: as §1

[11] = tested on: waterhemp (common waterhemp, Amaranthus rudis); experiment: as above; conditions: scale 0 to 100; for Waterhemp plant response rating: Preemergence
Outline: as §1

[12] = tested on: soybean (Glycine max); experiment: as above; conditions: scale 0 to 100; for Soybean plant response rating: Preemergence
Outline: as §1

[13] = tested on: ragweed (common ragweed, Ambrosia elatior); experiment: as above; conditions: Preemergence, scale 0 to 100
Outline: as §1

[14] = tested on: field bindweed (Convolvulus arvensis); experiment: as above; conditions: scale 0 to 100; for Field Bindweed plant response rating: Preemergence
Outline: as §1

[15] = tested on: kochia (Kochia scoparia); experiment: as above; conditions: Preemergence, scale 0 to 100
Outline: as §1

O=Cn1cc(C(=O)c2ccccc2)c(-c2cc(Cl)cc(Cl)c2)n1 [Compound 28]
70: Ragweed plant response rating ([13]; 500 g ai/ha)
95: Plant response rating, Waterhemp_RES1 ([8]; 250 g ai/ha) | Waterhemp plant response rating ([11]; 250 g ai/ha) | Waterhemp plant response rating ([11]; 500 g ai/ha)
90: Plant response rating, Waterhemp_RES1 ([8]; 125 g ai/ha) | Plant response rating, Waterhemp_RES1 ([8]; 500 g ai/ha) | Plant response rating, Waterhemp ([11]; Postemergence, 250 g ai/ha) | Plant response rating, Waterhemp ([11]; Postemergence, 500 g ai/ha)
20: Foxtail, Giant plant response rating ([1]; 125 g ai/ha) | Plant response rating, Field Bindweed ([14]; Postemergence, 500 g ai/ha) | Kochia plant response rating ([15]; 62 g ai/ha)
40: Velvetleaf plant response rating ([10]; 250 g ai/ha) | Kochia plant response rating ([15]; 125 g ai/ha) | Kochia plant response rating ([15]; 250 g ai/ha)
100: Velvetleaf plant response rating ([10]; 500 g ai/ha)
10: Plant response rating, Field Bindweed ([14]; Postemergence, 250 g ai/ha)
65: Waterhemp plant response rating ([11]; 125 g ai/ha) | Ragweed plant response rating ([13]; 250 g ai/ha)
0: Foxtail, Giant plant response rating ([1]; 31 g ai/ha) | Foxtail, Giant plant response rating ([1]; 62 g ai/ha) | Foxtail, Giant plant response rating ([1]; 250 g ai/ha) | Foxtail, Giant plant response rating ([1]; 500 g ai/ha) | Nutsedge, Yellow plant response rating ([2]; 31 g ai/ha) | Nutsedge, Yellow plant response rating ([2]; 62 g ai/ha) | Nutsedge, Yellow plant response rating ([2]; 125 g ai/ha) | Nutsedge, Yellow plant response rating ([2]; 250 g ai/ha) | Nutsedge, Yellow plant response rating ([2]; 500 g ai/ha) | Johnsongrass plant response rating ([3]; 31 g ai/ha) | Johnsongrass plant response rating ([3]; 62 g ai/ha) | Johnsongrass plant response rating ([3]; 125 g ai/ha) | Johnsongrass plant response rating ([3]; 250 g ai/ha) | Johnsongrass plant response rating ([3]; 500 g ai/ha) | Crabgrass, Large plant response rating ([4]; 31 g ai/ha) | Crabgrass, Large plant response rating ([4]; 62 g ai/ha) | Crabgrass, Large plant response rating ([4]; 125 g ai/ha) | Crabgrass, Large plant response rating ([4]; 250 g ai/ha) | Crabgrass, Large plant response rating ([4]; 500 g ai/ha) | Goosegrass plant response rating ([5]; 31 g ai/ha) | Goosegrass plant response rating ([5]; 62 g ai/ha) | Goosegrass plant response rating ([5]; 125 g ai/ha) | Goosegrass plant response rating ([5]; 250 g ai/ha) | Goosegrass plant response rating ([5]; 500 g ai/ha) | Foxtail, Green plant response rating ([6]; 31 g ai/ha) | Foxtail, Green plant response rating ([6]; 62 g ai/ha) | Foxtail, Green plant response rating ([6]; 125 g ai/ha) | Foxtail, Green plant response rating ([6]; 250 g ai/ha) | Foxtail, Green plant response rating ([6]; 500 g ai/ha) | Morningglory plant response rating ([7]; 31 g ai/ha) | Morningglory plant response rating ([7]; 62 g ai/ha) | Morningglory plant response rating ([7]; 125 g ai/ha) | Morningglory plant response rating ([7]; 250 g ai/ha) | Morningglory plant response rating ([7]; 500 g ai/ha) | Surinam Grass plant response rating ([9]; 31 g ai/ha) | Surinam Grass plant response rating ([9]; 62 g ai/ha) | Surinam Grass plant response rating ([9]; 125 g ai/ha) | Surinam Grass plant response rating ([9]; 250 g ai/ha) | Surinam Grass plant response rating ([9]; 500 g ai/ha) | Velvetleaf plant response rating ([10]; 31 g ai/ha) | Velvetleaf plant response rating ([10]; 62 g ai/ha) | Velvetleaf plant response rating ([10]; 125 g ai/ha) | Waterhemp plant response rating ([11]; 31 g ai/ha) | Waterhemp plant response rating ([11]; 62 g ai/ha) | Plant response rating, Soybean ([12]; Postemergence, 31 g ai/ha) | Plant response rating, Soybean ([12]; Postemergence, 62 g ai/ha) | Plant response rating, Soybean ([12]; Postemergence, 125 g ai/ha) | Plant response rating, Soybean ([12]; Postemergence, 250 g ai/ha) | Plant response rating, Soybean ([12]; Postemergence, 500 g ai/ha) | Soybean plant response rating ([12]; 31 g ai/ha) | Soybean plant response rating ([12]; 62 g ai/ha) | Soybean plant response rating ([12]; 125 g ai/ha) | Soybean plant response rating ([12]; 250 g ai/ha) | Soybean plant response rating ([12]; 500 g ai/ha) | Ragweed plant response rating ([13]; 31 g ai/ha) | Ragweed plant response rating ([13]; 62 g ai/ha) | Plant response rating, Field Bindweed ([14]; Postemergence, 31 g ai/ha) | Plant response rating, Field Bindweed ([14]; Postemergence, 62 g ai/ha) | Plant response rating, Field Bindweed ([14]; Postemergence, 125 g ai/ha) | Field Bindweed plant response rating ([14]; 31 g ai/ha) | Field Bindweed plant response rating ([14]; 62 g ai/ha) | Field Bindweed plant response rating ([14]; 125 g ai/ha) | Field Bindweed plant response rating ([14]; 250 g ai/ha) | Field Bindweed plant response rating ([14]; 500 g ai/ha)
80: Plant response rating, Waterhemp ([11]; Postemergence, 31 g ai/ha)
15: Kochia plant response rating ([15]; 31 g ai/ha)
85: Plant response rating, Waterhemp_RES1 ([8]; 31 g ai/ha) | Plant response rating, Waterhemp_RES1 ([8]; 62 g ai/ha) | Plant response rating, Waterhemp ([11]; Postemergence, 62 g ai/ha) | Plant response rating, Waterhemp ([11]; Postemergence, 125 g ai/ha) | Kochia plant response rating ([15]; 500 g ai/ha)
30: Ragweed plant response rating ([13]; 125 g ai/ha)

C#CCn1cc(C(=O)c2ccccc2)c(-c2cc(Cl)cc(Cl)c2)n1 [Compound 39, [3-(3,5-dichlorophenyl)-1-(2-propyn-1-yl)-1H-pyrazol-4-yl]phenylmethanone]
30: Ragweed plant response rating ([13]; 500 g ai/ha) | Kochia plant response rating ([15]; 125 g ai/ha)
0%: plant injury at 31 g/ha ([12]; Glycine max, post-emergence, Postemergence, 31 g ai/ha) | plant injury at 62 g/ha ([12]; Glycine max, post-emergence, Postemergence, 62 g ai/ha) | plant injury at 125 g/ha ([12]; Glycine max, post-emergence, Postemergence, 125 g ai/ha) | pest or weed control at 31 g/ha ([14]; Convolvulus arvensis, post-emergence, Postemergence, 31 g ai/ha) | pest or weed control at 62 g/ha ([14]; Convolvulus arvensis, post-emergence, Postemergence, 62 g ai/ha) | pest or weed control at 125 g/ha ([14]; Convolvulus arvensis, post-emergence, Postemergence, 125 g ai/ha)
75: Velvetleaf plant response rating ([10]; 125 g ai/ha) | Kochia plant response rating ([15]; 500 g ai/ha)
65: Ragweed plant response rating ([13]; 250 g ai/ha) | Kochia plant response rating ([15]; 250 g ai/ha)
90%: pest or weed control at 125 g/ha ([11]; Amaranthus tuberculatus, post-emergence, Postemergence, 125 g ai/ha)
100: Velvetleaf plant response rating ([10]; 500 g ai/ha) | Waterhemp plant response rating ([11]; 250 g ai/ha) | Waterhemp plant response rating ([11]; 500 g ai/ha)
10%: plant injury at 250 g/ha ([12]; Glycine max, post-emergence, Postemergence, 250 g ai/ha) | pest or weed control at 250 g/ha ([14]; Convolvulus arvensis, post-emergence, Postemergence, 250 g ai/ha) | pest or weed control at 500 g/ha ([14]; Convolvulus arvensis, post-emergence, Postemergence, 500 g ai/ha)
20%: plant injury at 500 g/ha ([12]; Glycine max, post-emergence, Postemergence, 500 g ai/ha)
98%: pest or weed control at 500 g/ha ([11]; Amaranthus tuberculatus, post-emergence, Postemergence, 500 g ai/ha)
60: Ragweed plant response rating ([13]; 62 g ai/ha)
95%: pest or weed control at 250 g/ha ([11]; Amaranthus tuberculatus, post-emergence, Postemergence, 250 g ai/ha)
85: Plant response rating, Waterhemp_RES1 ([8]; 31 g ai/ha) | Plant response rating, Waterhemp_RES1 ([8]; 62 g ai/ha) | Waterhemp plant response rating ([11]; 62 g ai/ha)
15: Velvetleaf plant response rating ([10]; 62 g ai/ha)
0: Foxtail, Giant plant response rating ([1]; 62 g ai/ha) | Foxtail, Giant plant response rating ([1]; 125 g ai/ha) | Foxtail, Giant plant response rating ([1]; 250 g ai/ha) | Foxtail, Giant plant response rating ([1]; 500 g ai/ha) | Nutsedge, Yellow plant response rating ([2]; 62 g ai/ha) | Nutsedge, Yellow plant response rating ([2]; 125 g ai/ha) | Nutsedge, Yellow plant response rating ([2]; 250 g ai/ha) | Nutsedge, Yellow plant response rating ([2]; 500 g ai/ha) | Johnsongrass plant response rating ([3]; 62 g ai/ha) | Johnsongrass plant response rating ([3]; 125 g ai/ha) | Johnsongrass plant response rating ([3]; 250 g ai/ha) | Johnsongrass plant response rating ([3]; 500 g ai/ha) | Crabgrass, Large plant response rating ([4]; 62 g ai/ha) | Crabgrass, Large plant response rating ([4]; 125 g ai/ha) | Crabgrass, Large plant response rating ([4]; 250 g ai/ha) | Crabgrass, Large plant response rating ([4]; 500 g ai/ha) | Goosegrass plant response rating ([5]; 62 g ai/ha) | Goosegrass plant response rating ([5]; 125 g ai/ha) | Goosegrass plant response rating ([5]; 250 g ai/ha) | Goosegrass plant response rating ([5]; 500 g ai/ha) | Foxtail, Green plant response rating ([6]; 62 g ai/ha) | Foxtail, Green plant response rating ([6]; 125 g ai/ha) | Foxtail, Green plant response rating ([6]; 250 g ai/ha) | Foxtail, Green plant response rating ([6]; 500 g ai/ha) | Morningglory plant response rating ([7]; 62 g ai/ha) | Morningglory plant response rating ([7]; 125 g ai/ha) | Morningglory plant response rating ([7]; 250 g ai/ha) | Morningglory plant response rating ([7]; 500 g ai/ha) | Surinam Grass plant response rating ([9]; 62 g ai/ha) | Surinam Grass plant response rating ([9]; 125 g ai/ha) | Surinam Grass plant response rating ([9]; 250 g ai/ha) | Surinam Grass plant response rating ([9]; 500 g ai/ha) | Soybean plant response rating ([12]; 62 g ai/ha) | Soybean plant response rating ([12]; 125 g ai/ha) | Soybean plant response rating ([12]; 250 g ai/ha) | Soybean plant response rating ([12]; 500 g ai/ha) | Ragweed plant response rating ([13]; 125 g ai/ha) | Field Bindweed plant response rating ([14]; 62 g ai/ha) | Field Bindweed plant response rating ([14]; 125 g ai/ha) | Field Bindweed plant response rating ([14]; 250 g ai/ha) | Field Bindweed plant response rating ([14]; 500 g ai/ha) | Kochia plant response rating ([15]; 62 g ai/ha)
95: Plant response rating, Waterhemp_RES1 ([8]; 500 g ai/ha) | Waterhemp plant response rating ([11]; 125 g ai/ha)
90: Plant response rating, Waterhemp_RES1 ([8]; 125 g ai/ha) | Plant response rating, Waterhemp_RES1 ([8]; 250 g ai/ha) | Velvetleaf plant response rating ([10]; 250 g ai/ha)
80%: pest or weed control at 31 g/ha ([11]; Amaranthus tuberculatus, post-emergence, Postemergence, 31 g ai/ha)
